# Entries after “also recorded” stand apart in the source; their conditions may differ.
# What was measured:
# [1] = test system: rat primary OPCs deficient in UBE3A; test: Ki67 immunoblotting in primary rat OPCs with Ube3A siRNA knockdown; type: cell-based; details: siUBE3A; 10 μM over 24 hours; vs siUBE3A alone
# Method: OPC purification followed our protocol previously described in Mei et al., 2016 (Identification of the Kappa-Opioid Receptor as a Therapeutic Target for Oligodendrocyte Remyelination. J Neurosci 36, 7925-7935), isolating cells from day 7 postnatal rat cortical hemispheres. The process began with mechanical dissection and papain digestion at 37° C. for 75 minutes, with occasional shaking. After trituration, cells were processed through immunopanning with 0.2% BSA, involving 30 minutes of negative and 45 minutes of positive selection. Selection plates were pre-treated with secondary antibodies and incubated with primary antibodies Ran-2, Gal-C (for negative) and O4 (for positive selection). Trypsin dissociated OPCs from the selection dish, and the reaction was stopped with 30% FBS, achieving >95% purity. OPCs were then plated on poly-1-lysine-coated coverslips in a nutrient-rich medium and incubated at 37° C. and 5% CO2 overnight. Post PDGF-AA removal, OPCs received either compound or control treatments for 2 days, with vehicle controls adjusted to match treatment concentrations.
# The siRNAs targeting UBE3A (Thermo Fisher, #4390815 and #4390816), estrogen receptors (Thermo Scientific #145909 for ESRβ, #145539 for ESRα, and #4390824 for GPER), and negative control (Thermo Scientific, #AM4615) were obtained commercially. […]
# [2] = test system: Angelman syndrome (AS) mice; test: Accelerating Rotarod test in AS mice; type: in vivo, mouse; details: 10 mg/kg daily IP, days 1-3, vs AS vehicle
# Method: (§1) Animal handling and experimental use strictly followed NIH guidelines and protocols approved by the local Institutional Animal Care and Use Committee (IACUC) of Brown University. In all experiments, Mice were age and gender-matched. Multiple liters were used for all experiments. Weaned mice, housed in groups of two to four per cage, were maintained on a 12-h light/dark cycle with food and water ad libitum.
# (§2) ESRβ agonist AC-186 treatment in vivo. 10 mg/kg AC-186 was daily IP delivered after dissolved at high concentration (30 mg/ml) in DMSO and further diluted in 20% PEG300. Vehicle groups received the same volume and concentration of diluted DMSO in 20% PEG300. Treatment started at P13 and continued until mice were sacrificed at P42.
# This involved conducting two trials per day for three consecutive days, with a 20-minute rest interval between trials. During each trial, mice were placed on a rod that accelerated from 4 to 40 RPM over a five-minute period, and the time until each mouse fell was recorded. The average duration before falling was tracked and graphed across the three-day span.
# [3] = test system: Angelman syndrome (AS) mice; test: Fear conditioning test in AS mice; type: in vivo, mouse
# Method: as §1, §2
# For evaluating hippocampus-dependent memory, the protocol described in Lau and Yang, et al., 2023 for the fear conditioning test was followed. Mice were placed in an electrified and sound-attenuated chamber (Coulbourn Instruments, Allentown, PA) which was exposed to a scent (0.1% coconut) diluted in ethanol (70%) on day 1. Mice were habituated to the chamber for 3 min before undergoing three conditioning trials: a tone (5 kHz, 70 dB, 30 s) co-terminating with a foot shock (0.7 mA, 1 s). Conditioning trials were separated by a 30-second interval. Following conditioning, mice rested inside the chamber for 1.5 min before returning to their home cage. […]
structure (smiles),measurement,setting,value
Oc1ccc(C2(c3ccccc3F)CCC(F)(F)CC2)cc1 [AC-186],OPC proliferation (Ki67 expression),[1],rescues impaired proliferation; also recorded: rescued; also recorded: reversed; also recorded: rescue of OPC proliferation; also recorded: increased Ki67 expression
same,Rotarod time to fall,[2],significant improvements; also recorded: increased
same,"Contextual fear conditioning, percentage of time spent freezing","[3]; AS mice, 10 mg/kg daily IP, vs AS vehicle, 10 mg/kg",ameliorated; also recorded: increased
same,cued fear conditioning,[3]; all four groups,no intergroup differences
